# Species: Rattus norvegicus
# Assay: Open TG-GATES - Regimen: Daily Repeat
# Type: toxicity, organism-based, Sprague-Dawley
# Set-up: regimen Daily Repeat, gender Male, age 6 weeks
# Conditions: in vivo, po, route gavage; for APTT / Bas / Eos / Fbg / Hb / Ht / Lym / MCHC / MCV / Mono / Neu / PT / Plat / RBC / Ret / WBC: tissue Blood; for KIDNEY_L / KIDNEY_R / KIDNEY_TOTAL: tissue Kidney; for LIVER: tissue Liver; for ALP / ALT / AST / CRE / DBIL / GLC / IP / K / LDH / Na / PL / RALB / TBIL / TC / TG / TP / gamma-GTP: tissue Plasma
# [1] = 300 mg/kg, 72 h, dose level Middle, time 3 day
# [2] = 300 mg/kg, […], dose level Middle, time 7 day
# [3] = 300 mg/kg, […], dose level Middle, time 14 day
# [4] = 300 mg/kg, […], dose level Middle, time 28 day
# [5] = 1000 mg/kg, 72 h, dose level High, time 3 day
# [6] = 1000 mg/kg, […], dose level High, time 7 day
# [7] = 1000 mg/kg, […], dose level High, time 14 day
# [8] = 1000 mg/kg, […], dose level High, time 28 day
smiles,measurement,setting,value
C#C[C@]1(O)CC[C@H]2[C@@H]3CCC4=Cc5oncc5C[C@]4(C)[C@H]3CC[C@@]21C [DANAZOL],TERMINAL_BW,[1],238.4 g
same,APTT,[1],22.7 s
same,Bas,[1],0%
same,Eos,[1],1%
same,Fbg,[1],355.8 mg/dL
same,Hb,[1],13.5 g/dL
same,Ht,[1],40.3%
same,Lym,[1],80%
same,MCHC,[1],33.4%
same,MCV,[1],62.4 fL
same,Mono,[1],2.4%
same,Neu,[1],15.8%
same,PT,[1],16.5 s
same,Plat,[1],115.8 x10_4/uL
same,RBC,[1],645.6 x10_4/ul
same,Ret,[1],6.6%
same,WBC,[1],87.1 x10_2/uL
same,KIDNEY_L,[1],1.1 g
same,KIDNEY_R,[1],1.1 g
same,KIDNEY_TOTAL,[1],2.2 g
same,LIVER,[1],12.4 g
same,ALP,[1],1638.6 IU/L
same,ALT,[1],45.2 IU/L
same,AST,[1],65.8 IU/L
same,CRE,[1],0.2 mg/dL
same,DBIL,[1],0 mg/dL
same,GLC,[1],180.2 mg/dL
same,IP,[1],7.9 mg/dL
same,K,[1],4.5 meq/L
same,LDH,[1],169.6 IU/L
same,Na,[1],141.6 meq/L
same,PL,[1],129.6 mg/dL
same,RALB,[1],3.1 g/dL
same,TBIL,[1],0.004 mg/dL
same,TC,[1],50.2 mg/dL
same,TG,[1],172.2 mg/dL
same,TP,[1],5.7 g/dL
same,gamma-GTP,[1],2 IU/L
same,TERMINAL_BW,[2],263.9 g
same,TERMINAL_BW,[3],303.4 g
same,TERMINAL_BW,[4],343.4 g
same,APTT,[2],25.7 s
same,Bas,[2],0%
same,Eos,[2],0.8%
same,Fbg,[2],360 mg/dL
same,Hb,[2],13.9 g/dL
same,Ht,[2],41.1%
same,Lym,[2],81.8%
same,MCHC,[2],33.8%
same,MCV,[2],61.8 fL
same,Mono,[2],2%
same,Neu,[2],14.8%
same,PT,[2],16.2 s
same,Plat,[2],127.5 x10_4/uL
same,RBC,[2],666.4 x10_4/ul
same,Ret,[2],5.3%
same,WBC,[2],104.2 x10_2/uL
same,APTT,[3],26.4 s
same,Bas,[3],0%
same,Eos,[3],0.8%
same,Fbg,[3],334.2 mg/dL
same,Hb,[3],14.6 g/dL
same,Ht,[3],41.2%
same,Lym,[3],85.2%
same,MCHC,[3],35.4%
same,MCV,[3],58.8 fL
same,Mono,[3],2.4%
same,Neu,[3],10.8%
same,PT,[3],17.3 s
same,Plat,[3],124.6 x10_4/uL
same,RBC,[3],701.4 x10_4/ul
same,Ret,[3],2.8%
same,WBC,[3],113.8 x10_2/uL
same,APTT,[4],26.1 s
same,Bas,[4],0%
same,Eos,[4],0.6%
same,Fbg,[4],310.8 mg/dL
same,Hb,[4],14.5 g/dL
same,Ht,[4],42.2%
same,Lym,[4],84.2%
same,MCHC,[4],34.5%
same,MCV,[4],54.1 fL
same,Mono,[4],1.8%
same,Neu,[4],12.4%
same,PT,[4],17.9 s
same,Plat,[4],108.2 x10_4/uL
same,RBC,[4],779.4 x10_4/ul
same,Ret,[4],2%
same,WBC,[4],79.9 x10_2/uL
same,KIDNEY_L,[2],1.2 g
same,KIDNEY_R,[2],1.2 g
same,KIDNEY_TOTAL,[2],2.4 g
same,KIDNEY_L,[3],1.3 g
same,KIDNEY_R,[3],1.3 g
same,KIDNEY_TOTAL,[3],2.6 g
same,KIDNEY_L,[4],1.4 g
same,KIDNEY_R,[4],1.3 g
same,KIDNEY_TOTAL,[4],2.7 g
same,LIVER,[2],13.6 g
same,LIVER,[3],14.9 g
same,LIVER,[4],14.9 g
same,ALP,[2],1469 IU/L
same,ALT,[2],42.6 IU/L
same,AST,[2],64 IU/L
same,CRE,[2],0.2 mg/dL
same,DBIL,[2],0 mg/dL
same,GLC,[2],181.6 mg/dL
same,IP,[2],6.5 mg/dL
same,K,[2],4.3 meq/L
same,LDH,[2],134.6 IU/L
same,Na,[2],142.2 meq/L
same,PL,[2],132.2 mg/dL
same,RALB,[2],3.1 g/dL
same,TBIL,[2],0.002 mg/dL
same,TC,[2],49.4 mg/dL
same,TG,[2],210.2 mg/dL
same,TP,[2],5.8 g/dL
same,gamma-GTP,[2],1.8 IU/L
same,ALP,[3],1443.4 IU/L
same,ALT,[3],35.6 IU/L
same,AST,[3],58 IU/L
same,CRE,[3],0.2 mg/dL
same,DBIL,[3],0 mg/dL
same,GLC,[3],170 mg/dL
same,IP,[3],6.8 mg/dL
same,K,[3],4.3 meq/L
same,LDH,[3],134.8 IU/L
same,Na,[3],141.8 meq/L
same,PL,[3],115 mg/dL
same,RALB,[3],3.1 g/dL
same,TBIL,[3],0 mg/dL
same,TC,[3],35.6 mg/dL
same,TG,[3],240.6 mg/dL
same,TP,[3],6 g/dL
same,gamma-GTP,[3],2.4 IU/L
same,ALP,[4],1201.6 IU/L
same,ALT,[4],35.6 IU/L
same,AST,[4],57.6 IU/L
same,CRE,[4],0.2 mg/dL
same,DBIL,[4],0 mg/dL
same,GLC,[4],178 mg/dL
same,IP,[4],5.8 mg/dL
same,K,[4],4 meq/L
same,LDH,[4],121.6 IU/L
same,Na,[4],142.2 meq/L
same,PL,[4],130.4 mg/dL
same,RALB,[4],3.1 g/dL
same,TBIL,[4],0.002 mg/dL
same,TC,[4],41.4 mg/dL
same,TG,[4],280.2 mg/dL
same,TP,[4],6.2 g/dL
same,gamma-GTP,[4],2.8 IU/L
same,TERMINAL_BW,[5],232.8 g
same,APTT,[5],23.9 s
same,Bas,[5],0%
same,Eos,[5],1%
same,Fbg,[5],355.8 mg/dL
same,Hb,[5],13.1 g/dL
same,Ht,[5],39.4%
same,Lym,[5],83%
same,MCHC,[5],33.3%
same,MCV,[5],63 fL
same,Mono,[5],3%
same,Neu,[5],12.2%
same,PT,[5],16.6 s
same,Plat,[5],122.2 x10_4/uL
same,RBC,[5],626 x10_4/ul
same,Ret,[5],5.3%
same,WBC,[5],100.4 x10_2/uL
same,KIDNEY_L,[5],1.1 g
same,KIDNEY_R,[5],1.1 g
same,KIDNEY_TOTAL,[5],2.2 g
same,LIVER,[5],13.1 g
same,ALP,[5],1658.2 IU/L
same,ALT,[5],39.2 IU/L
same,AST,[5],60.6 IU/L
same,CRE,[5],0.2 mg/dL
same,DBIL,[5],0 mg/dL
same,GLC,[5],173.4 mg/dL
same,IP,[5],7.6 mg/dL
same,K,[5],4.5 meq/L
same,LDH,[5],153.4 IU/L
same,Na,[5],141 meq/L
same,PL,[5],116.2 mg/dL
same,RALB,[5],3.1 g/dL
same,TBIL,[5],0 mg/dL
same,TC,[5],47.2 mg/dL
same,TG,[5],132.6 mg/dL
same,TP,[5],5.8 g/dL
same,gamma-GTP,[5],2 IU/L
same,TERMINAL_BW,[6],261.4 g
same,TERMINAL_BW,[7],289.1 g
same,TERMINAL_BW,[8],372.5 g
same,APTT,[6],25.7 s
same,Bas,[6],0%
same,Eos,[6],0.8%
same,Fbg,[6],351.6 mg/dL
same,Hb,[6],14 g/dL
same,Ht,[6],41.5%
same,Lym,[6],86.4%
same,MCHC,[6],33.8%
same,MCV,[6],60 fL
same,Mono,[6],1.6%
same,Neu,[6],10.4%
same,PT,[6],16.7 s
same,Plat,[6],143.9 x10_4/uL
same,RBC,[6],693.2 x10_4/ul
same,Ret,[6],4.9%
same,WBC,[6],103.6 x10_2/uL
same,APTT,[7],28.9 s
same,Bas,[7],0%
same,Eos,[7],0.8%
same,Fbg,[7],345.6 mg/dL
same,Hb,[7],14.8 g/dL
same,Ht,[7],42.1%
same,Lym,[7],86.8%
same,MCHC,[7],35.2%
same,MCV,[7],57.3 fL
same,Mono,[7],2.2%
same,Neu,[7],9.6%
same,PT,[7],17.1 s
same,Plat,[7],119 x10_4/uL
same,RBC,[7],734.6 x10_4/ul
same,Ret,[7],2.4%
same,WBC,[7],81.2 x10_2/uL
same,APTT,[8],27.7 s
same,Bas,[8],0%
same,Eos,[8],1.2%
same,Fbg,[8],320.6 mg/dL
same,Hb,[8],14.3 g/dL
same,Ht,[8],41.9%
same,Lym,[8],79.4%
same,MCHC,[8],34.1%
same,MCV,[8],56.1 fL
same,Mono,[8],3%
same,Neu,[8],15.8%
same,PT,[8],18.2 s
same,Plat,[8],112.3 x10_4/uL
same,RBC,[8],749 x10_4/ul
same,Ret,[8],2.2%
same,WBC,[8],69.9 x10_2/uL
same,KIDNEY_L,[6],1.1 g
same,KIDNEY_R,[6],1.2 g
same,KIDNEY_TOTAL,[6],2.3 g
same,KIDNEY_L,[7],1.3 g
same,KIDNEY_R,[7],1.4 g
same,KIDNEY_TOTAL,[7],2.7 g
same,KIDNEY_L,[8],1.5 g
same,KIDNEY_R,[8],1.5 g
same,KIDNEY_TOTAL,[8],3 g
same,LIVER,[6],13.2 g
same,LIVER,[7],15 g
same,LIVER,[8],18 g
same,ALP,[6],1593 IU/L
same,ALT,[6],36.4 IU/L
same,AST,[6],61.2 IU/L
same,CRE,[6],0.1 mg/dL
same,DBIL,[6],0 mg/dL
same,GLC,[6],184 mg/dL
same,IP,[6],7 mg/dL
same,K,[6],4.3 meq/L
same,LDH,[6],136.6 IU/L
same,Na,[6],142.4 meq/L
same,PL,[6],121 mg/dL
same,RALB,[6],3.2 g/dL
same,TBIL,[6],0 mg/dL
same,TC,[6],44.2 mg/dL
same,TG,[6],200.6 mg/dL
same,TP,[6],5.8 g/dL
same,gamma-GTP,[6],2.4 IU/L
same,ALP,[7],1541.2 IU/L
same,ALT,[7],37.6 IU/L
same,AST,[7],58.6 IU/L
same,CRE,[7],0.2 mg/dL
same,DBIL,[7],0 mg/dL
same,GLC,[7],174.8 mg/dL
same,IP,[7],7.2 mg/dL
same,K,[7],4.3 meq/L
same,LDH,[7],133.8 IU/L
same,Na,[7],142.2 meq/L
same,PL,[7],124.2 mg/dL
same,RALB,[7],3.1 g/dL
same,TBIL,[7],0 mg/dL
same,TC,[7],38.6 mg/dL
same,TG,[7],255.8 mg/dL
same,TP,[7],6.2 g/dL
same,gamma-GTP,[7],2.8 IU/L
same,ALP,[8],1028.8 IU/L
same,ALT,[8],37.6 IU/L
same,AST,[8],55.8 IU/L
same,CRE,[8],0.2 mg/dL
same,DBIL,[8],0 mg/dL
same,GLC,[8],177.8 mg/dL
same,IP,[8],6.6 mg/dL
same,K,[8],4.2 meq/L
same,LDH,[8],122.6 IU/L
same,Na,[8],141.6 meq/L
same,PL,[8],133.6 mg/dL
same,RALB,[8],3.2 g/dL
same,TBIL,[8],0 mg/dL
same,TC,[8],41.4 mg/dL
same,TG,[8],275.4 mg/dL
same,TP,[8],6.4 g/dL
same,gamma-GTP,[8],3.6 IU/L

# — ChEMBL document CHEMBL3885861, “Open TG-GATES”
